Data reported in paper PMC5354814, “In silico and in vitro drug screening identifies new therapeutic approaches for Ewing sarcoma” (Oncotarget, 2016).
Read-outs that look alike come from different tables or passages of the source.

Assays:
[1] = set-up: method as in ref 19 (a number printed in a supplementary file, which may have a reference list of its own: not looked up in the article's list); conditions: cited from earlier work
[2] = set-up: method as in ref 19 (a number printed in a supplementary file, which may have a reference list of its own: not looked up in the article's list); conditions: cited from earlier work; remark: listed apart in the source
human monocyte = tested on: human monocyte; set-up: method as in ref 19 (a number printed in a supplementary file, which may have a reference list of its own: not looked up in the article's list); conditions: 0.1 - 1.0 µg auranofin/mL; cited from earlier work
TC-71 = assay: Hits validation, dose-response cell proliferation (CellTiter-Glo); format: cell-based; conditions: 12-point dose-response 50 μmol/L to 1 nmol/L, mean ± SD
Description: (§1) For hits validation and combination study, cells were harvested and aliquoted into 384-well plates at concentrations of 750–1,500 cells per well in a total of 20 μl/well using a Matrix Wellmate (Thermo Scientific). Five μl of culture media containing either vehicles or drug were added to each well the next day (drug concentrations range from 1 nmol/L to 50 μmol/L). For combination study, selected drugs were archived in robotically accessible plates, to which media was added in preparation for addition to master plates by a Nimbus 96 liquid-dispensing workstation (Hamilton). Liquid transfers to dilution and assay plates were handled using the same workstation. Each 384-well master plate contained four 9 by 9 dose-matrix blocks, with eight serial two-fold dilutions (concentrations range from 7.8 nmol/L to 1 μmol/L). Additional wells were reserved for untreated, and vehicle-treated control wells. Cell proliferation was evaluated using Cell-Titer Glo® reagents (Promega). IC50 values were determined for each drug using SigmaPlot (Systat Software). The combination index values were calculated using SigmaPlot (Systat Software) and CompuSyn.

CHLA-258 = assay: as above; format: cell-based; conditions: 12-point dose-response 50 μmol/L to 1 nmol/L, mean ± SD
Description: as §1

A673 = assay: as above; format: cell-based; conditions: 12-point dose-response 50 μmol/L to 1 nmol/L, mean ± SD
Description: as §1

Hs 822.T. = assay: as above; format: cell-based; conditions: control cell line, 12-point dose-response, mean ± SD
Description: as §1

COG-E-352 = assay: as above; format: cell-based; conditions: 12-point dose-response 50 μmol/L to 1 nmol/L, mean ± SD
Description: as §1

RD-ES = assay: as above; format: cell-based; conditions: 12-point dose-response 50 μmol/L to 1 nmol/L, mean ± SD
Description: as §1

SK-ES-1 = assay: as above; format: cell-based; conditions: 12-point dose-response 50 μmol/L to 1 nmol/L, mean ± SD
Description: as §1

Hs 863.T. = assay: as above; format: cell-based; conditions: control cell line, 12-point dose-response, mean ± SD
Description: as §1

human monocytes = tested on: human monocytes; set-up: method as in ref 19 (a number printed in a supplementary file, which may have a reference list of its own: not looked up in the article's list); conditions: 0.125 µg auranofin/mL; cited from earlier work
Rhesus monkey lung = tested on: Rhesus monkey lung; set-up: method as in ref 19 (a number printed in a supplementary file, which may have a reference list of its own: not looked up in the article's list); conditions: 1.5 x 10^-4M; cited from earlier work
[3] = set-up: method as in ref 19 (a number printed in a supplementary file, which may have a reference list of its own: not looked up in the article's list); conditions: 2.5 µg/mL; cited from earlier work
[4] = Blood gold pharmacokinetics after i.p. auranofin suspension with ganetespib pre-treatment; format: in vivo, BALB/c mice
From the text: As indicated previously, auranofin is a complex of gold triethylphosphine and thioglucose tetraacetate. Gold comprises 29% of auranofin by weight. Auranofin is chemically and metabolically highly unstable in solution. […] Following oral administration of ^195Au auranofin to humans, 25% of administered ^195Au appears in plasma. Further, approximately 40% of absorbed gold distributes into erythrocytes with 60% found in plasma. As a result, and consistent with the extensive literature describing auranofin pharmacokinetics in animals and humans, we characterized the pharmacokinetics of i.p. auranofin in mice by quantifying blood gold concentrations as summarized in Table 4. Peak blood gold concentrations were 12.43 μg/mL in mice receiving auranofin suspension preceded by i.v. ganetespib. […]
The single-dose […] pharmacokinetics of gold were characterized in 36 BALB/c mice following administration of a single 12 mg/kg i.p. suspension dose of auranofin. […] Whole blood aliquots of 500 μL obtained from each of the three animals per time point were assayed using a validated inductively coupled plasma mass spectrometry (ICPMS) method to quantify blood gold concentration. Mean blood gold concentrations were determined for each blood collection time point. […]

human lymphocyte = tested on: human lymphocyte; set-up: method as in ref 19 (a number printed in a supplementary file, which may have a reference list of its own: not looked up in the article's list); conditions: 0.1 - 1.0 µg auranofin/mL; cited from earlier work
[5] = set-up: method as in ref 19 (a number printed in a supplementary file, which may have a reference list of its own: not looked up in the article's list); conditions: rats, 2 - 40 mg auranofin/kg p.o.; cited from earlier work
[6] = set-up: method as in ref 19 (a number printed in a supplementary file, which may have a reference list of its own: not looked up in the article's list); conditions: dogs, 0.6 - 1.2 mg auranofin/kg p.o.; cited from earlier work
mouse L929 fibroblasts = tested on: mouse L929 fibroblasts; set-up: method as in ref 19 (a number printed in a supplementary file, which may have a reference list of its own: not looked up in the article's list); conditions: 1µM auranofin; cited from earlier work

CC(=O)OC[C@H]1O[C@@H]([S-])[C@H](OC(C)=O)[C@@H](OC(C)=O)[C@@H]1OC(C)=O.CCP(CC)CC.[Au+] [Auranofin, auranofin]
tissue gold concentration ([1]; rat tissues): highest in the kidneys | absorption after oral dosing ([1]; rat): 19% | blood gold in plasma proteins ([1]; rat): 35% | blood gold in red blood cells ([1]; rat): 65% | urinary excretion ([1]; rat): 10% | elimination in feces ([1]; single oral dose, within 21 days, rat): 79% | effect on hemodynamic and electrocardiographic parameters, pulmonary function, CNS activity, gastric mucosa or endocrine system [2]: no significant effect | phagocytosis (human monocyte): inhibited | IC50 (TC-71): 260 ± 140 nM | IC50 (CHLA-258): 380 ± 190 nM | IC50 (A673): 330 ± 220 nM | IC50 (Hs 822.T.): 1450 ± 90 nM | IC50 (COG-E-352): 820 ± 190 nM | IC50 (RD-ES): 2450 ± 520 nM | IC50 (SK-ES-1): 80 nM | IC50 (Hs 863.T.): 3.25 ± 0.12 µM | ADCC of human monocytes (human monocytes): reduced | anti-human IgE-induced release of histamine and SRS-A (Rhesus monkey lung): inhibition | pokeweed mitogen-induced immunoglobulin production [3]: inhibited | Trough gold concentration ([4]; 24 hours following the fifth once daily i.p. dose of 12 mg/kg): 23.9 µg/mL | Cmax ([4]; single i.p. 12 mg/kg auranofin suspension, ganetespib pre-treatment): 63.1 µM | phytohemagglutinin-induced mitogenesis (human lymphocyte): inhibited | antidiuretic effect [5]: slight antidiuretic effect | antidiuretic effect [6]: not in dogs | ADCC (mouse L929 fibroblasts): inhibited
